Measurements taken from patent US9056876B2, “Substituted 1H-pyrazolo[3′,4′,4,5]thieno[2,3-b]pyridin-3-amine analogs as positive allosteric modulators of the muscarinic acetylcholine receptor M4” (VANDERBILT UNIVERSITY, priority 2011, dated 2015).

Target: T1, mAChR M4 (UniProt P08173)
T1 construct: hM1 and hM4 cDNAs were purchased from Missouri S&T cDNA Resource
T1 sequence (P08173 1-479): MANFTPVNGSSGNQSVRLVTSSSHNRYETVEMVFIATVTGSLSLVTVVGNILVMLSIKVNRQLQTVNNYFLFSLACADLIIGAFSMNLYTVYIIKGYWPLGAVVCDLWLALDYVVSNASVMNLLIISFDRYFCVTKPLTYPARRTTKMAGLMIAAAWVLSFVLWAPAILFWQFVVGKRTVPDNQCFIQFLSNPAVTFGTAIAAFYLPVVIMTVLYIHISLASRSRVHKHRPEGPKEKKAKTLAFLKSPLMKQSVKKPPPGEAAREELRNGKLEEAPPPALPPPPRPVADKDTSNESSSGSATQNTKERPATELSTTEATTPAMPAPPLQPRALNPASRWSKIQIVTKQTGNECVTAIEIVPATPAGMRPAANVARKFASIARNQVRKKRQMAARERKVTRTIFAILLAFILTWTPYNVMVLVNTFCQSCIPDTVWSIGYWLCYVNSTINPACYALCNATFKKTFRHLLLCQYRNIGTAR
Assay: mAChR M4 cell-based functional assay (calcium mobilization, Fluo-4, FDSS)
Conditions: for Emax (%)*: % ACh maximum at 30 μM; for pEC50: positive allosteric modulator activity, EC20 acetylcholine response; for pEC50 / EC50: CHO-K1 cells; for EC50: positive allosteric modulator activity: concentration-dependent increase in the EC20 acetylcholine response, >10 μM estimated for low potency (no plateau)
Description: Chinese hamster ovary (CHO-K1) cells stably expressing rat (r)M1 were purchased from the American Type Culture Collection and cultured according to their indicated protocol. CHO cells stably expressing human (h)M2, hM3, and hM5 were described previously (Levey A I, et al., (1991) J Neurosci 11:3218-3226.); hM1 and hM4 cDNAs were purchased from Missouri S&T cDNA Resource; rM4 cDNA was provided by T. I. Bonner (National Institutes of Health, Bethesda, Md.). rM2 and rM3 were cloned from a rat brain cDNA library and sequence verified. hM1, rM2, rM3, hM4, and rM4 cDNAs were used to stably transfect CHO-K1 cells purchased from the American Type Culture Collection using Lipofectamine-2000. To make stable rM2, hM2, rM3, hM4, and rM4 cell lines for use in calcium mobilization assays, these cells also were stably transfected with a chimeric G-protein (Gqi5) (provided by B. R. Conklin, University of California, San Francisco) using Lipofectamine 2000. rM1, hM1, rM3, hM3, rM5, and hM5 cells were grown in Ham's F-12 medium containing 10% heat-inactivated fetal bovine serum (FBS), 20 mM HEPES, and 50 µg/mL G418 sulfate. rM2-Gqi5, hM2-Gqi5, and hM4-Gqi5 cells were grown in the same medium also containing 500 µg/mL Hygromycin B. Stable rM4-Gqi5 cells were grown in DMEM containing 10% heat-inactivated FBS, 20 mM HEPES, 400 µg/mL G418 sulfate, and 500 µg/mL Hygromycin B.
For high throughput measurement of agonist-evoked increases in intracellular calcium, CHO-K1 cells stably expressing the target muscarinic receptor were plated in growth medium lacking G418 and hygromycin at 15,000 cells/20 μL/well in Greiner 384-well black-walled, tissue culture (TC)-treated, clear-bottom plates (VWR). Cells were incubated overnight at 37° C. and 5% CO2. The next day, cells were washed using an ELX 405 (BioTek) with four washes (80 μL) of assay buffer then aspirated to 20 μL. Next, […] of 16 μM Fluo-4/acetoxymethyl ester (Invitrogen, Carlsbad, Calif.) prepared as a 2.3 mM stock in DMSO and mixed in a 1:1 ratio with 10% (w/v) Pluronic F-127 and diluted in assay buffer was added to the wells and the cell plates were incubated for 50 min at 37° C. and 5% CO2. Dye was removed by washing with the ELX 405 (four 80 μL washes of assay buffer) then aspirated to 20 μL. Compound master plates were formatted in an 11 point CRC format (1:3 dilutions) in 100% DMSO with a starting concentration of 10 mM using the BRAVO liquid handler (Agilent). Test compound CRCs were then transferred to daughter plates (240 nL) using the Echo acoustic plate reformatter (Labcyte, Sunnyvale, Calif.) and then diluted into assay buffer (40 μL) to a 2× stock using a Thermo Fisher Combi (Thermo Fisher Scientific, Waltham, Mass.).
Calcium flux was measured using the Functional Drug Screening System (FDSS) 6000 (Hamamatsu Corporation, Tokyo, Japan) as an increase in the fluorescent static ratio. Compounds were applied to cells (20 μL, 2×) using the automated system of the FDSS 6000 at 4 s into the 300 s protocol and the data were collected at 1 Hz. At 144 s into the 300 s protocol, 10 μL of an EC20 concentration of the muscarinic receptor agonist acetylcholine was added (5×), followed by the addition of 12 μL an EC80 concentration of acetylcholine at the 230 s time point (5×). Agonist activity was analyzed as a concentration-dependent increase in calcium mobilization upon compound addition. Positive allosteric modulator activity was analyzed as a concentration-dependent increase in the EC20 acetylcholine response. Antagonist activity was analyzed as a concentration-dependent decrease in the EC80 acetylcholine response. Concentration-response curves were generated using a four-parameter logistical equation in XLfit curve fitting software (IDBS, Bridgewater, N.J.) for Excel (Microsoft, Redmond, Wash.) or Prism (GraphPad Software, Inc., San Diego, Calif.). […]

| Emax (%)* | pEC50 | EC50 | Compound |
| --- | --- | --- | --- |
| 50% | 6.07 | 850 nM | Cc1nc2sc3c(N)nn(C)c3c2c(C)c1Cl [Compound 23, 7-chloro-1,6,8-trimethyl-1H-pyrazolo[3′,4′:4,5]thieno[2,3-b]pyridin-3-amine] |
| 61% | <5.00 | > 10000 nM | Cc1nc2sc3c(NCCC(C)C)nn(C)c3c2c(C)c1Cl [Compound 24, 7-chloro-N-isopentyl-1,6,8-trimethyl-1H-pyrazolo[3′,4′:4,5]thieno[2,3-b]pyridin-3-amine] |
| 57% | 6.66 | 220 nM | Cc1nc2sc3c(NCc4ccco4)nn(C)c3c2c(C)c1Cl [Compound 25, 7-chloro-N-(furan-2-ylmethyl)-1,6,8-trimethyl-1H-pyrazolo[3′,4′:4,5]thieno[2,3-b]pyridin-3-amine] |
| 42% | <5.00 | > 10000 nM | Cc1nc2sc3c(NCc4cccs4)nn(C)c3c2c(C)c1Cl [Compound 26, 7-chloro-1,6,8-trimethyl-N-(thiophen-2-ylmethyl)-1H-pyrazolo[3′,4′:4,5]thieno[2,3-b]pyridin-3-amine] |
| 46% | <5.00 | > 10000 nM | Cc1nc2sc3c(NCc4ccc(F)c(F)c4)nn(C)c3c2c(C)c1Cl [Compound 27, 7-chloro-N-(3,4-difluorobenzyl)-1,6,8-trimethyl-1H-pyrazolo[3′,4′:4,5]thieno[2,3-b]pyridin-3-amine] |
| 36% | <5.00 | > 10000 nM | Cc1ccnc(Nc2nn(C)c3c2sc2nc(C)c(Cl)c(C)c23)n1 [Compound 28, 7-chloro-1,6,8-trimethyl-N-(4-methylpyrimidin-2-yl)-1H-pyrazolo[3′,4′:4,5]thieno[2,3-b]pyridin-3-amine] |
| 49% | <5.00 | > 10000 nM | Cc1cc(C)c2c(n1)sc1c(N)nn(C)c12 [Compound 29, 1,6,8-trimethyl-1H-pyrazolo[3′,4′:4,5]thieno[2,3-b]pyridin-3-amine] |
| 73% | 6.80 | 160 nM | Cc1cc(C)c2c(n1)sc1c(NCC3CC3)nn(C)c12 [Compound 30, N-(cyclopropylmethyl)-1,6,8-trimethyl-1H-pyrazolo[3′,4′:4,5]thieno[2,3-b]pyridin-3-amine] |
| 81% | 6.72 | 190 nM | Cc1cc(C)c2c(n1)sc1c(NCCC(C)C)nn(C)c12 [Compound 32, N-isopentyl-1,6,8-trimethyl-1H-pyrazolo[3′,4′:4,5]thieno[2,3-b]pyridin-3-amine] |
| 75% | 6.89 | 130 nM | Cc1cc(C)c2c(n1)sc1c(NCc3ccccc3)nn(C)c12 [Compound 33, N-benzyl-1,6,8-trimethyl-1H-pyrazolo[3′,4′:4,5]thieno[2,3-b]pyridin-3-amine] |
| 81% | 7.07 | 86 nM | Cc1cc(C)c2c(n1)sc1c(NCc3cccs3)nn(C)c12 [Compound 34, 1,6,8-trimethyl-N-(thiophen-2-ylmethyl)-1H-pyrazolo[3′,4′:4,5]thieno[2,3-b]pyridin-3-amine] |
| 80% | 5.92 | 1200 nM | Cc1cc(C)c2c(n1)sc1c(NCc3ccco3)n[nH]c12 [Compound 35, N-(furan-2-ylmethyl)-6,8-dimethyl-1H-pyrazolo[3′,4′:4,5]thieno[2,3-b]pyridin-3-amine] |
| 78% | 6.20 | 630 nM | Cc1cc(C)c2c(n1)sc1c(NCc3cccs3)n[nH]c12 [Compound 36, 6,8-dimethyl-N-(thiophen-2-ylmethyl)-1H-pyrazolo[3′,4′:4,5]thieno[2,3-b]pyridin-3-amine] |
| 53% | 5.43 | 3700 nM | Cc1cc(C)c2c(n1)sc1c(NCC(C)C)n[nH]c12 [Compound 37, N-isobutyl-6,8-dimethyl-1H-pyrazolo[3′,4′:4,5]thieno[2,3-b]pyridin-3-amine] |
| 72% | 6.66 | 220 nM | COc1ccc(CNc2nn(C)c3c2sc2nc(C)cc(C)c23)cc1 [Compound 38, N-(4-methoxybenzyl)-1,6,8-trimethyl-1H-pyrazolo[3′,4′:4,5]thieno[2,3-b]pyridin-3-amine] |
| 68% | 6.30 | 500 nM | Cc1cc(C)c2c(n1)sc1c(NCc3ccc(F)cc3)nn(C)c12 [Compound 39, N-(4-fluorobenzyl)-1,6,8-trimethyl-1H-pyrazolo[3′,4′:4,5]thieno[2,3-b]pyridin-3-amine] |
| 85% | 6.96 | 110 nM | Cc1cc(C)c2c(n1)sc1c(NCc3ccco3)nn(C)c12 [Compound 40, N-(furan-2-ylmethyl)-1,6,8-trimethyl-1H-pyrazolo[3′,4′:4,5]thieno[2,3-b]pyridin-3-amine] |
| 87% | 6.11 | 780 nM | Cc1cc(C)c2c(n1)sc1c(NC(C)C)nn(C)c12 [Compound 41, N-isopropyl-1,6,8-trimethyl-1H-pyrazolo[3′,4′:4,5]thieno[2,3-b]pyridin-3-amine] |
| 93% | 6.82 | 150 nM | Cc1cc(C)c2c(n1)sc1c(NCc3ccncc3)nn(C)c12 [Compound 42, 1,6,8-trimethyl-N-(pyridin-4-ylmethyl)-1H-pyrazolo[3′,4′:4,5]thieno[2,3-b]pyridin-3-amine] |
| 64% | 5.35 | 4500 nM | Cc1ccc2c(n1)sc1c(NCC3CC3)n[nH]c12 [Compound 43, N-(cyclopropylmethyl)-6-methyl-1H-pyrazolo[3′,4′:4,5]thieno[2,3-b]pyridin-3-amine] |
| 62% | 5.30 | 5000 nM | Cc1ccc2c(n1)sc1c(NCc3ccco3)n[nH]c12 [Compound 44, N-(furan-2-ylmethyl)-6-methyl-1H-pyrazolo[3′,4′:4,5]thieno[2,3-b]pyridin-3-amine] |
| 37% | <5.00 | > 10000 nM | Cc1ccc2c(n1)sc1c(NC(C)C)n[nH]c12 [Compound 45, N-isopropyl-6-methyl-1H-pyrazolo[3′,4′:4,5]thieno[2,3-b]pyridin-3-amine] |
